US11987647B2, “Cyclic cell-penetrating peptides with one or more hydrophobic residues” (Ohio State Innovation Foundation, priority 2018, dated 2024)
[ ]: non-standard residue; d: D form. The star is where a group is joined. Decanoyl = CCCCCCCCCC(=O)*; Dap = NC[C@H](N)C(=O)O

Key:
Assay type in all cases: cell-based
HeLa cells [1] = assay: Cellular entry by live-cell confocal imaging of FITC-labelled peptides; conditions: 5 μM FITC-labelled peptide, 2 h
Experimental: CPP1-15 and CPP1-20 were labeled with FITC via a miniPEG-Lys linker. HeLa cells were treated with 5 μM peptide for 2 h, washed, and imaged by live-cell confocal imaging. […] Additional experiments are ongoing to further examine their mechanism of cell entry.

HeLa cells [2] = assay: Cytosolic entry efficiency of NF-labelled peptides by flow cytometry; conditions: for sensitivity to serum concentration: 10% vs 1% FBS, compared with CPP9 or CPP12; for Cellular Entry Efficiency In 10% FBS: 2 h, relative to CPP12 (100%); for CPP activity compared with CPP1-4 (in words): variant of CPP1-4
Experimental: All of the peptides were labeled with naphthofluorescein (NF) at the Gln side chain through a long, flexible linker, miniPEG-Lys. HeLa cells were treated with 5 μM peptide for 2 h in the presence of 10% FBS and the cytosolic entry of the peptides was quantitated by flow cytometry analysis.
To determine cellular uptake efficiency of the CPPs disclosed herein, HeLa cells were cultured in 12-well plates (1.5×10^5 cells per well) overnight. The cells were incubated for 2 h with […] naphthofluorescein (NF)-labelled peptide in cellular media. At the end of incubation, the cells were washed with DPBS twice, detached from the plate with 0.25% trypsin, diluted into clear DMEM, pelleted at 250 g for 5 min, washed twice with DPBS, resuspended in DPBS, and analyzed on a BD FACS LSR II flow cytometer. For NF-labelled peptides, a 633-nm laser was used for excitation and the fluorescence emission was analyzed in the APC channel. Absolute cellular uptake efficiency was determined by comparing the concentration (via fluorescence intensity) of the CPP in the cytosol to the concentration in the extracellular medium. Relative cellular uptake efficiency was determined by comparing the cytosolic concentration of the CPP to that cytosolic concentration of the control CPP cyclo(FΦRRRRQ).

HeLa cells [3] = assay: Cytotoxicity by the MTT assay; conditions: no label, up to 40 μM concentration
Source text: CPP1-15 (no label) was used as a representative and tested against HeLa cells for potential cytotoxicity by the MTT assay.

HeLa cells [4] = assay: Cytosolic entry efficiency of NF-labelled peptides by flow cytometry; conditions: for Cellular Entry Efficiency In 1% FBS: relative to CPP12 (100%); for cytosolic entry efficiency: reduced serum concentration (1% FBS), CPP12 most active
[5] = Table 4, 5 μM NF-labelled peptide, 10% FBS
[6] = Table 7, 5 μM NF-labelled peptide, 10% FBS

Substance | cellular entry (confocal imaging) (HeLa cells [1]) | sensitivity to serum concentration (HeLa cells [2]) | Cellular Entry Efficiency In 10% FBS (HeLa cells [2]; [5]) [%] | Cellular Entry Efficiency In 10% FBS (HeLa cells [2]; [6]) [%] | CPP activity compared with CPP1-4 (in words) (HeLa cells [2]) | cytotoxicity (HeLa cells [3]) | Cellular Entry Efficiency In 1% FBS (HeLa cells [4]; Table 4, NF-labelled peptide) [%] | Cellular Entry Efficiency In 1% FBS (HeLa cells [4]; Table 7, NF-labelled peptide) [%] | cytosolic entry efficiency (HeLa cells [4]) [%] | improvement in activity (HeLa cells [2]; 10% FBS, relative to CPP1-4) [fold] | fold more active than CPP9 and CPP12 (HeLa cells [2]; in the presence of 10% FBS) [fold]
cyclo(Lys^DecaRRRRQ) (cyclo(K(Decanoyl)RRRRQ); SMILES CCCCCCCCCC(=O)NCCCC[C@@H]1NC(=O)[C@H](CCC(N)=O)NC(=O)[C@H](CCCNC(=N)N)NC(=O)[C@H](CCCNC(=N)N)NC(=O)[C@H](CCCNC(=N)N)NC(=O)[C@H](CCCNC(=N)N)NC1=O) [CPP1-15] | entered HeLa cells efficiently | lower sensitivity to serum concentration | 76 ± 21 | 76 ± 21 | slightly increased the CPP activity | did not show significant cytotoxicity | 44 ± 11 | 44 ± 11 | 43 | – | –
cyclo(Asp^DecyRRRRQ) (cyclo(DRRRRQ); not fully specified (residue 1); printed as cyclo(Asp^DecyRRRRQ)) [CPP1-20] | entered HeLa cells efficiently | lower sensitivity to serum concentration | 281 ± 59 | 281 ± 59 | – | – | 94 ± 41 | 94 ± 41 | 94 | ~5 | −3
cyclo(Dap^DecaRRRQ) (cyclo([Dap](Decanoyl)RRRQ); SMILES CCCCCCCCCC(=O)NC[C@@H]1NC(=O)[C@H](CCC(N)=O)NC(=O)[C@H](CCCNC(=N)N)NC(=O)[C@H](CCCNC(=N)N)NC(=O)[C@H](CCCNC(=N)N)NC1=O) [CPP1-16] | – | – | 3.0 ± 0.1 | 3.0 ± 0.1 | greatly decreased the CPP activity | – | 25 | 25 | – | – | –
